From US20260102359A1, “COMBINATION TREATMENT OF DERMAL AND TRANSDERMAL FIBROTIC DISEASES, DISORDERS AND ASSOCIATED PAIN AND INFLAMMATION” (ERESINA, LLC, priority 2022, published 2026)
Structures can show the parent of a compound that is named as a salt.

System: hDMFa myofibroblast cells

SMILES: Clc1ccc(C(Cn2ccnc2)OCc2c(Cl)cccc2Cl)c(Cl)c1 (stereo not shown) [Cmpd 535, Isoconazole nitrate]
- Compound Myofibroblast Cytotoxicity Activity: +++

SMILES: CC=Cc1ccc(O)c(OC)c1 [Cmpd 536, Isoeugenol]
- Compound Myofibroblast Cytotoxicity Activity: ++

SMILES: O=C(O)c1ccncc1 [Cmpd 537, Isonicotinic acid]
- Compound Myofibroblast Cytotoxicity Activity: ++++

SMILES: CC(=O)Nc1ccc(C(=O)O)cc1.CC(=O)Nc1ccc(C(=O)O)cc1.CC(=O)Nc1ccc(C(=O)O)cc1.CC(O)CN(C)C.CC(O)CN(C)C.CC(O)CN(C)C.O=c1[nH]cnc2c1ncn2[C@@H]1O[C@H](CO)[C@@H](O)[C@H]1O [Cmpd 538, Isoprinosine]
- Compound Myofibroblast Cytotoxicity Activity: ++

SMILES: CC(C)NCC(O)c1ccc(O)c(O)c1 (stereo not shown) [Cmpd 539, Isoproterenol sulfate dihydrate]
- Compound Myofibroblast Cytotoxicity Activity: ++

SMILES: O=[N+]([O-])O[C@@H]1CO[C@H]2[C@@H]1OC[C@@H]2O [Cmpd 540, Isosorbide 5-mononitrate]
- Compound Myofibroblast Cytotoxicity Activity: ++

SMILES: CC(COc1ccccc1)NC(C)C(O)c1ccc(O)cc1 (stereo not shown) [Cmpd 542, Isoxsuprine (hydrochloride)]
- Compound Myofibroblast Cytotoxicity Activity: ++

SMILES: Cc1ccc(C(=O)N(CCCN)[C@@H](c2nc3cc(Cl)ccc3c(=O)n2Cc2ccccc2)C(C)C)cc1 [Cmpd 543, Ispinesib (SB-715992)]
- Compound Myofibroblast Cytotoxicity Activity: +++++

SMILES: COC(=O)C1=C(C)NC(C)=C(C(=O)OC(C)C)C1c1cccc2nonc12 (stereo not shown) [Cmpd 544, Isradipine (Dynacirc)]
- Compound Myofibroblast Cytotoxicity Activity: ++

SMILES: C[C@H]1O[C@H](OC2[C@@H](O)[C@@H](O)C(O)[C@H](O)[C@H]2O)[C@@H](N)C[C@@H]1N=C(N)C(=O)O.Cl (stereo partly shown) [Cmpd 548, Kasugamycin (hydrochloride)]
- Compound Myofibroblast Cytotoxicity Activity: +++

SMILES: CC(CCc1ccccc1)NCC(O)c1ccc(O)c(C(N)=O)c1 (stereo not shown) [Cmpd 553, Labetalol HCl]
- Compound Myofibroblast Cytotoxicity Activity: ++

SMILES: CS(=O)(=O)CCNCc1ccc(-c2ccc3ncnc(Nc4ccc(OCc5cccc(F)c5)c(Cl)c4)c3c2)o1 [Cmpd 558, Lapatinib Ditosylate]
- Compound Myofibroblast Cytotoxicity Activity: +++

SMILES: CCN(C(=O)c1c(O)c2c(Cl)cccc2n(C)c1=O)c1ccccc1 [Cmpd 559, Laquinimod (ABR-215062)]
- Compound Myofibroblast Cytotoxicity Activity: ++++

SMILES: N=C(N)NCCC[C@H](N)C(=O)O [Cmpd 561, L-Arginine]
- Compound Myofibroblast Cytotoxicity Activity: ++

SMILES: O=C1O[C@H]([C@@H](O)CO)C(O)=C1O [Cmpd 562, L-Ascorbic Acid (Vitamin C)]
- Compound Myofibroblast Cytotoxicity Activity: +

SMILES: CCCCCCCCCCCC(=O)O [Cmpd 564, Lauric Acid]
- Compound Myofibroblast Cytotoxicity Activity: ++

SMILES: CCCCCCCCCCCCN1CCCCCC1=O [Cmpd 565, Laurocapram]
- Compound Myofibroblast Cytotoxicity Activity: +++++

SMILES: Cc1c(C(=O)Nc2ccc(N3C[C@@H](C)O[C@@H](C)C3)nc2)cccc1-c1ccc(OC(F)(F)F)cc1.O=P(O)(O)O.O=P(O)(O)O [Cmpd 572, LDE225 Diphosphate]
- Compound Myofibroblast Cytotoxicity Activity: ++

SMILES: Cl.c1ccc2c(-c3cnn4cc(-c5ccc(N6CCNCC6)cc5)cnc34)ccnc2c1 [Cmpd 574, LDN193189 Hydrochloride]
- Compound Myofibroblast Cytotoxicity Activity: +++++

SMILES: c1cc(-c2cnn3cc(-c4ccc(N5CCNCC5)cc4)cnc23)c2cccnc2c1 [Cmpd 575, LDN-212854]
- Compound Myofibroblast Cytotoxicity Activity: ++++

SMILES: Nc1cccc2c1CN(C1CCC(=O)NC1=O)C2=O (stereo not shown) [Cmpd 578, Lenalidomide (CC-5013)]
- Compound Myofibroblast Cytotoxicity Activity: ++

SMILES: CCOC(=O)C1=C(COCCN)NC(C)=C(C(=O)OC)[C@@H]1c1ccccc1Cl [Cmpd 580, Levamlodipine]
- Compound Myofibroblast Cytotoxicity Activity: +++++

SMILES: CC(=O)CCC(=O)O [Cmpd 583, Levulinic acid]
- Compound Myofibroblast Cytotoxicity Activity: ++

SMILES: N[C@@H](CCC(=O)O)C(=O)[O-].[Na+] [Cmpd 584, L-Glutamic acid monosodium salt]
- Compound Myofibroblast Cytotoxicity Activity: ++

SMILES: N[C@@H](CCC(=O)N[C@@H](CS)C(=O)NCC(=O)O)C(=O)O [Cmpd 585, L-Glutathione Reduced]
- Compound Myofibroblast Cytotoxicity Activity: ++++

SMILES: N[C@@H](Cc1c[nH]cn1)C(=O)O [Cmpd 586, L-Histidine]
- Compound Myofibroblast Cytotoxicity Activity: +

SMILES: CC1(C)Cc2c(-c3ccccc3)c(-c3ccc(Cl)cc3)c(CC(=O)O)n2C1 [Cmpd 588, Licofelone]
- Compound Myofibroblast Cytotoxicity Activity: +++

SMILES: CCN(CC)CC(=O)Nc1c(C)cccc1C.Cl.O [Cmpd 589, Lidocaine hydrochloride monohydrate]
- Compound Myofibroblast Cytotoxicity Activity: ++

SMILES: CCCCC/C=C\C/C=C\CCCCCCCC(=O)O [Cmpd 591, Linoleic Acid]
- Compound Myofibroblast Cytotoxicity Activity: +++

SMILES: C[C@]1(O)C[C@@H](c2nc(-c3ccc4ccc(-c5ccccc5)nc4c3)c3c(N)nccn32)C1 [Cmpd 592, Linsitinib]
- Compound Myofibroblast Cytotoxicity Activity: +++

SMILES: CC[C@H](C)[C@H](N)C(=O)O [Cmpd 594, L-Isoleucine]
- Compound Myofibroblast Cytotoxicity Activity: +

SMILES: O=C([O-])[O-].[Li+].[Li+] [Cmpd 595, Lithium carbonate]
- Compound Myofibroblast Cytotoxicity Activity: ++++

SMILES: CC(C)C[C@H](N)C(=O)O [Cmpd 596, L-Leucine]
- Compound Myofibroblast Cytotoxicity Activity: +++

SMILES: CSCC[C@H](N)C(=O)O [Cmpd 600, L-Methionine]
- Compound Myofibroblast Cytotoxicity Activity: ++++

SMILES: CN(C)C(=O)C(CCN1CCC(O)(c2ccc(Cl)cc2)CC1)(c1ccccc1)c1ccccc1 [Cmpd 606, Loperamide HCl]
- Compound Myofibroblast Cytotoxicity Activity: +++

SMILES: CC(C(=O)O)c1ccc(CC2CCCC2=O)cc1 (stereo not shown) [Cmpd 611, Loxoprofen Sodium]
- Compound Myofibroblast Cytotoxicity Activity: ++

SMILES: O=C(O)[C@@H]1CCCN1 [Cmpd 612, L-Proline]
- Compound Myofibroblast Cytotoxicity Activity: ++++

SMILES: O=C1CC[C@@H](C(=O)O)N1 [Cmpd 613, L-Pyroglutamic acid]
- Compound Myofibroblast Cytotoxicity Activity: ++++

SMILES: C[C@@H](O)[C@H](N)C(=O)O [Cmpd 614, L-Threonine]
- Compound Myofibroblast Cytotoxicity Activity: +++++

SMILES: N[C@@H](Cc1c[nH]c2ccccc12)C(=O)O [Cmpd 615, L-Tryptophan]
- Compound Myofibroblast Cytotoxicity Activity: ++

SMILES: CC(C)[C@H](N)C(=O)O [Cmpd 618, L-Valine]
- Compound Myofibroblast Cytotoxicity Activity: ++

SMILES: CCN1CCN(Cc2ccc(Nc3ncc(F)c(-c4cc(F)c5nc(C)n(C(C)C)c5c4)n3)nc2)CC1 [Cmpd 622, LY2835219 free base]
- Compound Myofibroblast Cytotoxicity Activity: ++++

SMILES: C[C@H]1[C@H](C)CC[C@]2(C(=O)O)CC[C@]3(C)C(=CC[C@@H]4[C@@]5(C)C[C@@H](O)[C@H](O)[C@@](C)(CO)[C@@H]5[C@H](O)C[C@]43C)[C@H]12 [Cmpd 625, Madecassic acid]
- Compound Myofibroblast Cytotoxicity Activity: +++++

SMILES: NCc1ccc(S(N)(=O)=O)cc1 [Cmpd 626, Mafenide Acetate]
- Compound Myofibroblast Cytotoxicity Activity: ++++

SMILES: Cl.NCc1ccc(S(N)(=O)=O)cc1 [Cmpd 627, Mafenide hydrochloride]
- Compound Myofibroblast Cytotoxicity Activity: ++

SMILES: O=C(O)CC(=O)O [Cmpd 631, Malonic acid]
- Compound Myofibroblast Cytotoxicity Activity: ++++

SMILES: CC(C)OC(=O)C(C(=O)OC(C)C)=C1SC=CS1 [Cmpd 632, Malotilate]
- Compound Myofibroblast Cytotoxicity Activity: ++

SMILES: CNCCCC12CCC(c3ccccc31)c1ccccc12 [Cmpd 635, Maprotiline HCl]
- Compound Myofibroblast Cytotoxicity Activity: +++

SMILES: Cc1cccc(O)c1 [Cmpd 636, m-Cresol]
- Compound Myofibroblast Cytotoxicity Activity: ++

SMILES: COC(=O)Nc1nc2ccc(C(=O)c3ccccc3)cc2[nH]1 [Cmpd 637, Mebendazole]
- Compound Myofibroblast Cytotoxicity Activity: ++++

SMILES: CCN(CCCCOC(=O)c1ccc(OC)c(OC)c1)C(C)Cc1ccc(OC)cc1.Cl (stereo not shown) [Cmpd 638, Mebeverine Hydrochloride]
- Compound Myofibroblast Cytotoxicity Activity: ++

SMILES: CNC1(C)C2CCC(C2)C1(C)C.Cl (stereo not shown) [Cmpd 639, Mecamylamine hydrochloride]
- Compound Myofibroblast Cytotoxicity Activity: ++++

SMILES: Cc1cccc(CN2CCN(C(c3ccccc3)c3ccc(Cl)cc3)CC2)c1.Cl.Cl (stereo not shown) [Cmpd 641, Meclizine 2HCl]
- Compound Myofibroblast Cytotoxicity Activity: ++

SMILES: CC(=O)O[C@]1(C(C)=O)CC[C@H]2[C@@H]3C[C@H](C)C4=CC(=O)CC[C@]4(C)[C@H]3CC[C@@]21C [Cmpd 643, Medroxyprogesterone acetate]
- Compound Myofibroblast Cytotoxicity Activity: ++

SMILES: Cl.OC(c1cc(C(F)(F)F)nc2c(C(F)(F)F)cccc12)C1CCCCN1 (stereo not shown) [Cmpd 644, Mefloquine hydrochloride]
- Compound Myofibroblast Cytotoxicity Activity: ++++

SMILES: CC(C)=CCC/C(C)=C/CC/C(C)=C/CC/C(C)=C/CC1=C(C)C(=O)c2ccccc2C1=O [Cmpd 652, Menaquinone 4]
- Compound Myofibroblast Cytotoxicity Activity: ++

SMILES: CC(=O)OC(C)C[N+](C)(C)C (stereo not shown) [Cmpd 655, Methacholine chloride]
- Compound Myofibroblast Cytotoxicity Activity: ++

SMILES: COc1cccc(OC)c1C(=O)N[C@@H]1C(=O)N2[C@@H]1SC(C)(C)[C@@H]2C(=O)O [Cmpd 656, Methicillin (sodium salt)]
- Compound Myofibroblast Cytotoxicity Activity: ++

SMILES: CSCC[C@H](N)C(=O)O [Cmpd 657, Methionine]
- Compound Myofibroblast Cytotoxicity Activity: ++

SMILES: CN(Cc1cnc2nc(N)nc(N)c2n1)c1ccc(C(=O)N[C@@H](CCC(=O)[O-])C(=O)[O-])cc1.[Na+].[Na+] [Cmpd 658, Methotrexate disodium]
- Compound Myofibroblast Cytotoxicity Activity: ++

SMILES: COC(=O)c1ccccc1O [Cmpd 659, Methyl salicylate]
- Compound Myofibroblast Cytotoxicity Activity: ++

SMILES: CS(C)(=O)=O [Cmpd 660, Methyl Sulfonyl Methane (MSM)]
- Compound Myofibroblast Cytotoxicity Activity: +

SMILES: C/C1=C2/[N-][C@H]([C@H](CC(N)=O)[C@@]2(C)CCC(=O)NC[C@@H](C)OP(=O)([O-])O[C@H]2[C@@H](O)[C@@H](n3cnc4cc(C)c(C)cc43)O[C@@H]2CO)[C@]2(C)N=C(/C(C)=C3N=C(/C=C4N=C1[C@@H](CCC(N)=O)C\4(C)C)[C@@H](CCC(N)=O)[C@]\3(C)CC(N)=O)[C@@H](CCC(N)=O)[C@]2(C)CC(N)=O.[CH3-].[Co+3] [Cmpd 662, Methylcobalamin]
- Compound Myofibroblast Cytotoxicity Activity: ++

SMILES: CN(C)c1ccc2nc3ccc(=[N+](C)C)cc-3sc2c1 [Cmpd 663, Methylene Blue]
- Compound Myofibroblast Cytotoxicity Activity: +++++

SMILES: COC(=O)c1ccc(O)cc1 [Cmpd 664, Methylparaben]
- Compound Myofibroblast Cytotoxicity Activity: ++

SMILES: COCCc1ccc(OCC(O)CNC(C)C)cc1 (stereo not shown) [Cmpd 665, Metoprolol Tartrate]
- Compound Myofibroblast Cytotoxicity Activity: ++

SMILES: CC(C)(C(=O)c1cccnc1)c1cccnc1 [Cmpd 667, Metyrapone]
- Compound Myofibroblast Cytotoxicity Activity: ++
